Results as given in patent EP2790511B1 (Merck Sharp & Dohme Corp., priority 2011, dated 2013).

Biological target: T1, hROMK (hKir1.1) (Homo sapiens, UniProt P48048)
T1 construct: expressed in transfected cells
T1 sequence (P48048 1-391): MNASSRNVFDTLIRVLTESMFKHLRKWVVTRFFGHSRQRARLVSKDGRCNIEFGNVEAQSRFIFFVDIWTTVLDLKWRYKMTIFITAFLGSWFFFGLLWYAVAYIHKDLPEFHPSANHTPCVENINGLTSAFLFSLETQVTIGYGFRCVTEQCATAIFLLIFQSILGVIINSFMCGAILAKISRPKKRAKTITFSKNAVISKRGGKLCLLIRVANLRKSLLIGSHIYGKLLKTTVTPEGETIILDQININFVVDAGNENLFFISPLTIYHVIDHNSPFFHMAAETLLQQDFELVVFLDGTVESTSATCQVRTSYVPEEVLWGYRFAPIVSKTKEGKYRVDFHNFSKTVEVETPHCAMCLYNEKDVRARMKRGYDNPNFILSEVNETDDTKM
Test: Thallium Flux Assay
Assay type: cell-based
Conditions: HEK293 cells stably expressing hROMK (hKir1.1), FLIPR-Tetra; read-out: Thallium Flux IC50
Description: Cell Culture Conditions- HEK293 cells stably expressing hROMK (hKir1.1) were grown at 37°C in a 10%CO2 humidified incubator in complete growth media: Dulbecco's Modified Eagle Medium supplemented with non-essential amino acids, Penicillin/Streptomycin/Glutamine, G418 and FBS. At >80% confluency, aspirate the media from the flask and rinse with 10 mL Calcium/Magnesium-free PBS. […] To dislodge the cell, gently bang the side of the flask with your hand. Triturate the cells completely and then transfer the cells to 25 mL complete media. Centrifuge at 1,500 rpm for 6 min followed by resuspension in complete growth media and determine cell concentration. […] Under ideal growth conditions and appropriate tissue culture practices, this cell line is stable for 40-45 passages.
• FluxOR™ Reagent (Component A) • FluxOR™ Assay Buffer (Component B) - 10X Concentrate • PowerLoad™ Concentrate (Component C) - 100X Concentrate • Probenecid (Component D) - Lyophilized sample is kept at -20°C. Water soluble, 100X after solubilization in 1 mL water. […] Store at 4°C. • Thallium sulfate (Tl2SO4) Concentrate (Component G) - 50 mM in water. Store at 4°C • DMSO (dimethyl sulfoxide, Component H) - 1 mL (100%)
• 1000X FluxOR™ Reagent: Reconstitute a vial of component A in 100 µl DMSO; Mix well; Store 10 µl aliquots at -20°C • 1X FluxOR™ Assay Buffer: Dilute Component B 10-fold with water; Adjust pH to 7.4 with Hepes/NaOH; Filter and store at 4°C • Probenecid/Assay Buffer: 100 mL of 1X FluxOR™ Assay Buffer; 1 mL of reconstituted component D; Store at 4°C • Loading Buffer (per microplate): 10 µl 1000X FluxOR™ Reagent; 100 µl component C; 10 mL Probenecid/Assay Buffer • Compound Buffer (per microplate): 20 mL Probenecid/Assay Buffer; 0.3 mM ouabain (10 mM ouabain in water can be stored in amber bottle/aluminum foil at room temperature); Test compound • 1X FluxOR™Chloride-Free Buffer: Prepare 1X working solution in water. Can be stored at room temperature • Stimulant Buffer (prepared at 5X final concentration in 1X FluxOR™Chloride-Free Buffer): 7.5 mM Thallium sulfate and 0.75 mM Potassium sulfate (to give a final assay concentration of 3 mM Thallium/ 0.3 mM Potassium). Store at 4°C when not in use. If kept sterile, this solution is good for months.
Assay protocol- The ROMK channel functional thallium flux assay is performed in 384 wells, using the FLIPR-Tetra instrument. HEK-hKir1.1 cells are seeded in Poly-D-Lysine microplates and kept in a 37°C-10%CO2 incubator overnight. On the day of the experiment, the growth media is replaced with the FluxOR™ reagent loading buffer and incubated, protected from light, at ambient temperature (23-25°C) for 90 min. The loading buffer is replaced with assay buffer ± test compound followed by 30 min incubation at ambient temperature, where the Thallium/Potassium stimulant is added to the microplate.
• 1. Seed HEK-hKir1.1 cells (50 µl at 20,000 cells/well) in 384-well PDL coated Microplates • 2. Allow cells to adhere overnight in humidified 37°C/10%CO2 incubator • 3. Completely remove cell growth media from microplate and replace with 25 µl loading buffer • 4. Incubate Microplate at room temperature, protected form light, for 90 min • 5. Remove loading buffer and replace with 25 µl 1x Assay Buffer ± test compound. • 6. Incubate microplate at room temperature, protected form light, for 30 min • 7. […] Excitation = 400 nm, Emission = 460 & 580 nm. Collect data for ∼ 10 min.
Data Calculation- The fluorescence intensity of wells containing 3 µM of a standard control ROMK inhibitor of the present invention is used to define the ROMK-sensitive component of thallium flux. Fluorescence in the presence of test compounds is normalized to control values to provide % fluorescence change.

In order of rising IC50:
1. Cc1c([C@@H]2CN3CCN(C(=O)Cc4ccc(-n5cnnn5)nc4)C[C@H]3CO2)csc1C#N [Example 68, 3-methyl-4-[(3R,9aS)-8-{[6-(1H-tetrazol-1-yl)pyridin-3-yl]acetyl}octahydropyrazino[2,1-c][1,4]oxazin-3-yl]thiophene-2-carbonitrile]  40 nM
2. N#Cc1c(F)ccc([C@@H]2CN3CCN(C(=O)Cc4ccc(-n5cnnn5)cn4)C[C@H]3CO2)c1Cl [Example 53]  60 nM
3. N#Cc1ccc([C@H]2CN3CCN(C(=O)Cc4ccc(-n5cnnn5)nc4)C[C@H]3CO2)cc1F [Example 67, 2-fluoro-4-[(3S,9aS)-8-{[6-(1H-tetrazol-1-yl)pyridin-3-yl]acetyl}octahydropyrazino[2,1-c][1,4]oxazin-3-yl]benzonitrile]  70 nM
4. N#Cc1c(F)ccc([C@@H]2CN3CCN(C(=O)Cc4ccc(-n5cnnn5)cn4)C[C@H]3CO2)c1F [Example 54, 2,6-difluoro-3-[(3R,9aS)-8-{[5-(1H-tetrazol-1-yl)pyridin-2-yl]acetyl}octahydropyrazino[2,1-c][1,4]oxazin-3-yl]benzonitrile]  100 nM
5. Cc1nc(-n2cnnn2)ccc1CC(=O)N1CCN2C[C@@H](c3ccc(F)c(C#N)c3C)OC[C@@H]2C1 [Example 77, 6-fluoro-2-methyl-3-[(3R,9aS)-8-{[2-methyl-6-(1H-tetrazol-1-vl)pvridin-3-yl]acetyl}octahydropyrazino[2,1-c][1,4]oxazin-3-yl]benzonitrile]  100 nM
6. Cc1c([C@H]2CN3CCN(C(=O)Cc4ccc(-n5cnnn5)nc4)C[C@H]3CO2)csc1C#N [Example 69, 3-methyl-4-[(3S,9aS)-8-{[6-(1H-tetrazol-1-yl)pyridin-3-yl]acetyl}octahydropyrazino[2,1-c][1,4]oxazin-3-yl]thiophene-2-carbonitrile]  110 nM
7. COc1cc([C@H]2CN3CCN(C(=O)Cc4ccc(-n5cnnn5)nc4)C[C@H]3CO2)ccc1C#N [Example 56, 2-methoxy-4-[(3S,9aS)-8-{[6-(1H-tetrazol-1-yl)pyridin-3-yl]acetyl}octahydropyrazino[2,1-c][1,4]oxazin-3-yl]benzonitrile]  120 nM
8. COc1c([C@@H]2CN3CCN(C(=O)Cc4ccc(-n5cnnn5)nc4)C[C@H]3CO2)ccc(F)c1C#N [Example 60, 6-fluoro-2-methoxy-3-[(3R,9aS)-8-{[6-(1H-tetrazol-1-vl)pvridin-3-yl]acetyl}octahydropyrazino[2,1-c][1,4]oxazin-3-yl]benzonitrile]  140 nM
9. Cc1c([C@@H]2CN3CCN(C(=O)Cc4ccc(-n5cnnn5)nc4)C[C@H]3CO2)ccc(Cl)c1C#N [Example 65]  150 nM
10. COc1c([C@H]2CN3CCN(C(=O)Cc4ccc(-n5cnnn5)cn4)C[C@H]3CO2)ccc(F)c1C#N [Example 63, 6-fluoro-2-methoxy-3-[(3S,9aS)-8-{[5-(1H-tetrazol-1-vl)pvridin-2-yl]acetyl}octahydropyrazino[2,1-c][1,4]oxazin-3-yl]benzonitrile]  180 nM
11. Cc1cc2c(cc1[C@H]1CN3CCN(C(=O)Cc4ccc(-n5cnnn5)nc4)C[C@H]3CO1)COC2=O [Example 73, 6-methyl-5-[(3S,9aS)-8-{[6-(1H-tetrazol-1-yl)pyridin-3-yl]acetyl}octahydropyrazino[2,1-c][1,4]oxazin-3-yl]-2-benzofuran-1(3H)-one]  230 nM
12. N#Cc1ccc([C@@H]2CN3CCN(C(=O)Cc4ccc(-n5cnnn5)nc4)C[C@H]3CO2)cc1F [Example 66, 2-fluoro-4-[(3R,9aS)-8-{[6-(1H-tetrazol-1-yl)pyridin-3-yl]acetyl}octahydropyrazino[2,1-c][1,4]oxazin-3-yl]benzonitrile]  370 nM
13. Cc1c([C@H]2CN3CCN(C(=O)Cc4ccc(-n5cnnn5)cn4)C[C@H]3CO2)csc1C#N [Example 71, 3-methyl-4-[(3S,9aS)-8-{[5-(1H-tetrazol-1-yl)pyridin-2-yl]acetyl}octahydropyrazino[2,1-c][1,4]oxazin-3-yl]thiophene-2-carbonitrile]  390 nM
14. Cc1c(C#N)cncc1[C@@H]1CN2CCN(C(=O)Cc3ccc(-n4cnnn4)nc3)C[C@H]2CO1 [Example 74, 4-methyl-5-[(3R,9aS)-8-{[6-(1H-tetrazol-1-yl)pyridin-3-yl]acetyl}octahydropyrazino[2,1-c][1,4]oxazin-3-yl]pyridine-3-carbonitrile]  390 nM
15. COc1c([C@@H]2CN3CCN(C(=O)Cc4ccc(-n5cnnn5)cn4)C[C@H]3CO2)ccc(F)c1C#N [Example 62, 6-fluoro-2-methoxy-3-[(3R,9aS)-8-{[5-(1H-tetrazol-1-vl)pvridin-2-yl]acetyl}octahydropyrazino[2,1-c][1,4]oxazin-3-yl]benzonitrile]  460 nM
16. Cc1c([C@H]2CN3CCN(C(=O)Cc4ccc(-n5cnnn5)nc4)C[C@H]3CO2)ccc(Cl)c1C#N [Example 64, 6-chloro-2-methyl-3-[(3S,9aS)-8-{[6-(1H-tetrazol-1-yl)pyridin-3-yl]acetyl}octahydropyrazino[2,1-c][1,4]oxazin-3-yl]benzonitrile]  680 nM
17. Cc1cc2c(cc1[C@@H]1CN3CCN(C(=O)Cc4ccc(-n5cnnn5)nc4)C[C@H]3CO1)COC2=O [Example 72, 6-methyl-5-[(3R,9aS)-8-{[6-(1H-tetrazol-1-yl)pyridin-3-yl]acetyl}octahydropyrazino[2,1-c][1,4]oxazin-3-yl]-2-benzofuran-1(3H)-one]  750 nM

Same assay, conditions: Thallium Flux IC50

In order of rising IC50:
1. O=C1OCCc2cc([C@H]3CN4CCN(C(=O)Cc5ccc(-n6cnnn6)nc5)C[C@@H]4CO3)ccc21 [Example 55, 6-[(3S,9aR)-8-{[6-(1H-tetrazol-1-yl)pyridin-3-yl]acetyl}octahydropyrazino[2,1-c][1,4]oxazin-3-yl]-3,4-dihydro-1H-isochromen-1-one]  120 nM
2. Cc1c([C@@H]2CN3CCN(C(=O)Cc4cnc(-n5cnnn5)cn4)C[C@H]3CO2)ccc(F)c1C#N [Example 75, 6-fluoro-2-methyl-3-[(3R,9aS)-8-{[5-(1H-tetrazol-1-yl)pyrazin-2-yl]acetyl}octahydropyrazino[2,1-c][1,4]oxazin-3-yl]benzonitrile]  130 nM
3. Cc1c([C@H]2CN3CCN(C(=O)Cc4cnc(-n5cnnn5)cn4)C[C@H]3CO2)ccc(F)c1C#N [Example 76, 6-fluoro-2-methyl-3-[(3S,9aS)-8-{[5-(1H-tetrazol-1-yl)pyrazin-2-yl]acetyl}octahydropyrazino[2,1-c][1,4]oxazin-3-yl]benzonitrile]  150 nM
4. Cc1c([C@@H]2CN3CCN(C(=O)Cc4ccc(-n5cnnn5)cn4)C[C@H]3CO2)csc1C#N [Example 70, 3-methyl-4-[(3R,9aS)-8-{[5-(1H-tetrazol-1-yl)pyridin-2-yl]acetyl}octahydropyrazino[2,1-c][1,4]oxazin-3-yl]thiophene-2-carbonitrile]  270 nM
